“And” between values parts separate entries of the source, which are not always exact repeats. Equal entries are not always repeated. Toxic doses and inconclusive results are not listed. The calls were made as follows: active = survival T/C of 150% or more; inactive = T/C below 125% in these data.
System: P388 leukemia ip, CD2F1 mice, survival T/C
Test: NCI In Vivo Anticancer Drug Screen. Data for tumor model P388 Leukemia (intraperitoneal) in CD2F1 (CDF1) mice
Conditions: endpoint: median survival time, higher = longer survival
How it was run: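 Mice carrying the transplanted tumor received test compound or vehicle. Survival was recorded in each group, and the value is the treated-group measurement divided by that of the vehicle-treated control group.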

[1] = dose: 50.0 mg/kg/injection, schedule: Q01DX009 (ip), vehicle: saline with Tween-80
[2] = dose: 100.0 mg/kg/injection, schedule: Q01DX009 (ip), vehicle: saline with Tween-80
[3] = dose: 200.0 mg/kg/injection, schedule: Q01DX009 (ip), vehicle: saline with Tween-80
[4] = dose: 25.0 mg/kg/injection, schedule: Q01DX005 (ip), vehicle: saline with Tween-80
[5] = dose: 50.0 mg/kg/injection, schedule: Q01DX009 (ip), vehicle: Klucel (hydroxypropylcellulose) (HPC)
[6] = dose: 100.0 mg/kg/injection, schedule: Q01DX009 (ip), vehicle: Klucel (hydroxypropylcellulose) (HPC)
[7] = dose: 50.0 mg/kg/injection, schedule: Q01DX005 (ip), vehicle: saline with Tween-80
[8] = dose: 100.0 mg/kg/injection, schedule: Q01DX005 (ip), vehicle: saline with Tween-80
[9] = dose: 200.0 mg/kg/injection, schedule: Q01DX005 (ip), vehicle: saline with Tween-80

Measured: T/C

CCOC1OCN(CCCN(C)C)CC1(C)C (stereo not given)
inactive: [1] 108 % of control | [2] 123 % of control | [3] 123 % of control

CC(C)CC(NC(=O)CF)C(=O)O (stereo not given)
inactive: dose: 1.25 mg/kg/injection, schedule: Q01DX009 (ip), vehicle: saline with Tween-80 96 % of control | dose: 2.5 mg/kg/injection, schedule: Q01DX009 (ip), vehicle: saline with Tween-80 109 % of control | dose: 5.0 mg/kg/injection, schedule: Q01DX009 (ip), vehicle: saline with Tween-80 124 % of control

CCCCN(CC(O)CNc1cc(OC)cc2cccnc12)C(C)CC (stereo not given)
inactive: dose: 6.25 mg/kg/injection, schedule: Q01DX005 (ip), vehicle: saline with Tween-80 95 % of control | dose: 12.5 mg/kg/injection, schedule: Q01DX005 (ip), vehicle: saline with Tween-80 91 % of control | [4] 100 % of control | dose: 25.0 mg/kg/injection, schedule: Q01DX005 (ip), vehicle: saline 92 % of control

CN(Cc1ccccc1)CC(CCC1OCCO1)(CCC1OCCO1)c1ccccc1
inactive: [5] 96 % of control | [6] 91 % of control

COc1ccc2c(c1O)C1=CC=CCC13CCN(C)C3C2 (stereo not given)
inactive: dose: 100.0 mg/kg/injection, schedule: Q04DX002 (ip), vehicle: saline with Tween-80 103 % of control | dose: 200.0 mg/kg/injection, schedule: Q04DX002 (ip), vehicle: saline with Tween-80 105 % of control | dose: 400.0 mg/kg/injection, schedule: Q04DX002 (ip), vehicle: saline with Tween-80 108 % of control

CCOC(=O)C1(C(=O)OCC)COC(=O)C1
inactive: dose: 16.0 mg/kg/injection, schedule: Q01DX009 (ip), vehicle: saline with Tween-80 97 % of control | dose: 32.0 mg/kg/injection, schedule: Q01DX009 (ip), vehicle: saline with Tween-80 109 % of control | dose: 64.0 mg/kg/injection, schedule: Q01DX009 (ip), vehicle: saline with Tween-80 114 % of control | dose: 128.0 mg/kg/injection, schedule: Q01DX009 (ip), vehicle: saline with Tween-80 97 % of control | dose: 256.0 mg/kg/injection, schedule: Q01DX009 (ip), vehicle: saline with Tween-80 106 % of control

CC(CC(=O)c1ccccc1)=NCCCCCN=C(C)CC(=O)c1ccccc1
inactive: [1] 100 % of control | [2] 102 % of control | [3] 100 % of control

CC1(C)COC(c2ccc(Br)cc2)=N1
inactive: dose: 25.0 mg/kg/injection, schedule: Q01DX009 (ip), vehicle: other 101 % of control | dose: 50.0 mg/kg/injection, schedule: Q01DX009 (ip), vehicle: other 97 % of control | dose: 100.0 mg/kg/injection, schedule: Q01DX009 (ip), vehicle: other 102 % of control | dose: 200.0 mg/kg/injection, schedule: Q01DX009 (ip), vehicle: other 104 % of control

Clc1c2ccccc2cc2cccnc12
inactive: dose: 50.0 mg/kg/injection, schedule: Q01DX009 (ip), vehicle: saline 101 % of control | dose: 100.0 mg/kg/injection, schedule: Q01DX009 (ip), vehicle: saline 100 % of control | dose: 200.0 mg/kg/injection, schedule: Q01DX009 (ip), vehicle: saline 102 % of control and 86 % of control

O=C(NC(Cc1cccc(F)c1)C(=O)O)c1ccccc1 (stereo not given)
inactive: dose: 6.25 mg/kg/injection, schedule: Q01DX009 (ip), vehicle: other 95 % of control | dose: 12.5 mg/kg/injection, schedule: Q01DX009 (ip), vehicle: other 96 % of control

O=C1CN(c2cccc(Cl)c2)C(=O)CN1/N=C/c1ccc(O)c(O)c1
inactive: [7] 88 % of control | [8] 92 % of control | [9] 100 % of control

O=C1CC(=O)NP(=O)(Oc2ccccc2)N1
inactive: dose: 100.0 mg/kg/injection, schedule: Q04DX002 (ip), vehicle: saline 103 % of control | dose: 200.0 mg/kg/injection, schedule: Q04DX002 (ip), vehicle: saline 100 % of control

OCCN(CCO)Cc1cccc2ccccc12
inactive: [7] 94 % of control | [8] 94 % of control

CN(C)c1ccnc2c1cnn2C1OC(CO)C(O)C1O (stereo not given)
inactive: [4] 97 % of control | [7] 108 % of control | [8] 106 % of control

CC1=NC(C)(COC(=O)C2(C)NC(C)(CO)CO2)COC1=O (stereo not given)
inactive: dose: 60.0 mg/kg/injection, schedule: Q01DX005 (ip), vehicle: saline 105 % of control | dose: 120.0 mg/kg/injection, schedule: Q01DX005 (ip), vehicle: saline 97 % of control | dose: 240.0 mg/kg/injection, schedule: Q01DX005 (ip), vehicle: saline 97 % of control

COC(=O)CCc1cc(=O)oc2c3c(cc(OC)c12)OC1OC(=O)CC31 (stereo not given)
inactive: dose: 8.75 mg/kg/injection, schedule: Q01DX005 (ip), vehicle: Klucel (hydroxypropylcellulose) (HPC) 90 % of control | dose: 17.5 mg/kg/injection, schedule: Q01DX005 (ip), vehicle: Klucel (hydroxypropylcellulose) (HPC) 95 % of control | dose: 35.0 mg/kg/injection, schedule: Q01DX005 (ip), vehicle: Klucel (hydroxypropylcellulose) (HPC) 90 % of control

COc1ccccc1Nc1ncnc2sc3c(c12)CCCC3
inactive: [7] 101 % of control | [8] 95 % of control | [9] 101 % of control

Cc1[nH]c(=O)[nH]c(=O)c1/C=C/C(=O)NC(CO)CS(=O)C(C)C (stereo not given)
inactive: dose: 0.07 mg/kg/injection, schedule: Q01DX009 (ip), vehicle: water 103 % of control | dose: 0.15 mg/kg/injection, schedule: Q01DX009 (ip), vehicle: water 100 % of control | dose: 0.3 mg/kg/injection, schedule: Q01DX009 (ip), vehicle: water 103 % of control | dose: 0.6 mg/kg/injection, schedule: Q01DX009 (ip), vehicle: water 103 % of control | dose: 2.0 mg/kg/injection, schedule: Q01DX009 (ip), vehicle: water 121 % of control | dose: 4.0 mg/kg/injection, schedule: Q01DX009 (ip), vehicle: water 118 % of control | dose: 8.0 mg/kg/injection, schedule: Q01DX009 (ip), vehicle: water 118 % of control | dose: 32.0 mg/kg/injection, schedule: Q01DX009 (ip), vehicle: water 100 % of control and 124 % of control | dose: 64.0 mg/kg/injection, schedule: Q01DX009 (ip), vehicle: water 93 % of control | dose: 128.0 mg/kg/injection, schedule: Q01DX009 (ip), vehicle: water 98 % of control | dose: 200.0 mg/kg/injection, schedule: Q01DX009 (ip), vehicle: water 108 % of control | dose: 256.0 mg/kg/injection, schedule: Q01DX009 (ip), vehicle: water 96 % of control | dose: 300.0 mg/kg/injection, schedule: Q01DX009 (ip), vehicle: water 110 % of control | dose: 400.0 mg/kg/injection, schedule: Q01DX009 (ip), vehicle: water 113 % of control

COC1OCN(C2CCCCC2)CC1(C)C (stereo not given)
inactive: dose: 17.5 mg/kg/injection, schedule: Q01DX009 (ip), vehicle: saline with Tween-80 100 % of control | dose: 35.0 mg/kg/injection, schedule: Q01DX009 (ip), vehicle: saline with Tween-80 104 % of control | dose: 70.0 mg/kg/injection, schedule: Q01DX009 (ip), vehicle: saline with Tween-80 117 % of control

CCOC(=O)/C=C/C(=O)NNS(=O)(=O)CCC(N)C(=O)O (stereo not given)
inactive: dose: 12.5 mg/kg/injection, schedule: Q01DX009 (ip), vehicle: water 101 % of control | dose: 25.0 mg/kg/injection, schedule: Q01DX009 (ip), vehicle: water 95 % of control | dose: 50.0 mg/kg/injection, schedule: Q01DX009 (ip), vehicle: water 100 % of control | dose: 100.0 mg/kg/injection, schedule: Q01DX009 (ip), vehicle: water 116 % of control

CC(=O)OC1C=CC(SC23CC4CC(CC(C4)C2)C3)N(C(C)=O)C1SC12CC3CC(CC(C3)C1)C2 (stereo not given)
inactive: [5] 103 % of control | [6] 105 % of control | dose: 200.0 mg/kg/injection, schedule: Q01DX009 (ip), vehicle: Klucel (hydroxypropylcellulose) (HPC) 99 % of control
